# Key:
# Assay type in all cases: cell-based
# human skin fibroblast [1] = experiment: AcGFP1 positive cell rate by flow cytometer (Example 19)
# Protocol: (§1) As an index showing an existence rate of a cell in which each retrovirus vector together with a gene encoding a nuclear reprogramming factor (iPS cell inducing factor) was inserted, gene transfer of an AcGFP1 gene was carried out, and a pluripotent stem cell (iPS cell) induction efficiency and an AcGFP1 positive cell rate, in a gene transfer method with Retronectin (Retronectin method) and a gene transfer method with polybrene (polybrene method) were compared. In addition, regarding partial condition, quantitation of a copy number of a retrovirus vector inserted into a genome was carried out, and comparison of a copy number and a pluripotent stem cell (iPS cell) induction efficiency was carried out.
# According to the same manner as that of Example 1-(1), immobilization of Retronectin on a culture plate was carried out, provided that, for a plate coated with Retronectin, a non-treatment 12-well plate was used, and each 1 mL of a Retronectin solution (25 μg/mL) was added to each well.
# (§2) The virus solutions prepared in Preparation Example 2 and Preparation Example 3 were mixed at an equal amount in a combination of Table 24, the solution in which the virus solution was diluted 10-fold and 100-fold with 10F-DMEM was prepared regarding the condition A, and the solution in which the virus solution was diluted 10-fold was prepared regarding the condition B, and these were used in gene transfer. Gene transfer was carried out according to the same manner as that of Example 7-(2), provided that 1 mL of PSB was used for washing a plate with PBS in the Retronectin method, the cell number used in infection by the Retronectin method and the polybrene method was 4×10^4 cells/well, and a retrovirus vector solution was 1 mL/well.
# (§3) According to the same manner as that of Example 10-(4), seeding of the gene-introduced cell on a feeder cell was carried out, provided that an AcGFP1 positive cell rate was measured with a flow cytometer using remaining cells which were not used in seeding on the feeder cell.
# human skin fibroblast [2] = experiment: iPS cell colony number, Retronectin method versus polybrene method (Example 19); conditions: for iPS cell colony number: 28th day of culture
# Protocol: as §1, §2, §3
# According to the same manner as that of Example 10-(5), culturing on the feeder cell was carried out, provided that cells were recovered from a part of wells under the condition A on the 11th day of culture, genome extraction was carried out, and the inserted number of the retrovirus vector was quantitated.
# [3] = test system: human adult skin fibroblast; experiment: iPS cell colony induction using a lentivirus vector, Retronectin or polybrene (Example 31); conditions: 32nd day of culture
# Protocol: According to the same manner as that of Example 1-(1), immobilization of Retronectin on a culture plate was carried out, provided that, as a plate to be coated with Retronectin, a non-treatment 12-well plate was used, and each 1 mL of a Retronectin solution (25 μg/mL) was added to each well.
# Each 500 μL of each mixed virus solution prepared in Preparation Example 5 was added to a 12-well Retronectin immobilization culture plate, or a 12-well culture plate, and each 500 μL of human adult skin fibroblast suspended in 10F-DMEM to 1×10^5 cells/mL was further added to each well. Regarding polybrene infection condition, polybrene was added to a final concentration of 8 μg/mL. […] (day 0 of culturing).
# On the sixth day of culture, according to the same manner as that of Example 5-(4), the gene-introduced cell was seeded on a feeder cell, and culturing was continued. […] During this, the medium was exchanged at 2 days interval.
# In addition, regarding the condition A, the results of only one well are shown.
# [4] = test system: human adult skin fibroblast; experiment: iPS cell colony induction, standing infecting method, Retronectin versus Native fibronectin (Example 21); conditions: virus 10-fold dilution, standing infection, 27th day of culture, N=3
# Protocol: Using a plate coated with Retronectin and a plate coated with Native fibronectin, gene transfer was carried out, and pluripotent stem cell induction was carried out. In addition, as the plate, a plate made in the following Example 21-(1), and a marketed product of a 35 mm petri dish coated with Retronectin in advance (T110A manufactured by TAKARA BIO INC.), and a marketed product of a 35 mm petri dish coated with Native fibronectin in advance (354457 manufactured by FALCON) were used.
# According to the same manner as that of Example 1-(1), immobilization of Retronectin on a culture plate was carried out, provided that, as a culturing container, a non-treatment 35 mm petri dish (manufactured by IWAKI CO., LTD.) was used. In addition, petri dishes coated with Retronectin and Native fibronectin in advance which are marketed products (hereinafter, also described as Retronectin dish and fibronectin dish) were not subjected to these immobilization operations.
# The virus solutions prepared in Preparation Example 2 were mixed at an equal amount in a combination of Table 27, and diluted 10-fold with 10F-DMEM, each 2 mL was added to the Retronectin-immobilized culturing petri dish prepared in Example 21-(1), or the petri dish coated with Retronectin or Native fibronectin in advance, and this was allowed to stand in a CO2 incubator at 32° C. for 4 to 6 hours. […]
# human skin fibroblast [5] = experiment: iPS cell colony induction, gene transfer with Retronectin or polybrene once or two times (Example 7); conditions: 28th day of culture, N=2
# Protocol: Regarding gene transfer with a retrovirus vector, introduction was carried out once or two times using Retronectin or polybrene, and induction of a pluripotent stem cell was carried out, followed by comparison.
# Regarding gene transfer with Retronectin, according to the same manner as that of Example 4-(2), gene transfer was carried out. Gene transfer with polybrene was carried out as follows. […] Each 700 μL of the virus solutions prepared by Preparation Example 2 were mixed in a combination of the condition C of Table 3, polybrene was added to a final concentration of 8 μg/mL to prepare a retrovirus vector mixed solution, the supernatant was removed from the plate on which the cell had been cultured, this retrovirus vector mixed solution was added, and culturing was initiated (day 0 of culturing).
# Gene transfer with polybrene was carried out according to the same manner as that of gene transfer with polybrene of Example 7-(2). That is, the supernatant was removed from the plate on which the cell had been cultured, a retrovirus vector mixed solution prepared similarly was added, and culturing was continued.
# On the sixth day of culture, according to the same manner as that of Example 5-(4), the gene-introduced cell was seeded on a feeder cell, and culturing was continued, provided that the gene-introduced cell was seeded by each 1.75×10^4 cells.
# The number in the Table indicates an average value of N=2.
# [6] = vector combination Condition A, virus 10-fold dilution
# [7] = vector combination Condition A, virus 100-fold dilution
# [8] = vector combination Condition B, virus 10-fold dilution
substance,measurement,setting,value
"Retronectin: fragment of fibronectin having a heparin-II binding region (registered trademark, CH-296, TAKARA BIO INC.)",AcGFP1 positive rate,human skin fibroblast [1]; [6],82.8%
same,AcGFP1 positive rate,human skin fibroblast [1]; [7],94.1%
same,AcGFP1 positive rate,human skin fibroblast [1]; [8],88%
same,iPS cell colony number higher in the Retronectin method,"human skin fibroblast [2]; Condition A, Retronectin method 100-fold dilution versus polybrene method 10-fold dilution",9 fold
same,"difference in the iPS cell colony number, Retronectin method versus polybrene method","human skin fibroblast [2]; Condition A, retrovirus 10-fold dilution",≥ 3 fold
same,iPS cell colony number higher in the Retronectin method,"human skin fibroblast [2]; Condition B, versus polybrene method",2 fold
same,iPS cell colony number,human skin fibroblast [2]; [6],10.0
same,iPS cell colony number,human skin fibroblast [2]; [7],27.0
same,iPS cell colony number,human skin fibroblast [2]; [8],11.5
same,"number of a pluripotent stem cell (iPS cell) colony, Well 1",[3]; 20-fold concentrated virus,3
same,"number of a pluripotent stem cell (iPS cell) colony, Well 2",[3]; 20-fold concentrated virus,2
same,"number of a pluripotent stem cell (iPS cell) colony, Well 1",[3]; virus without concentration,5
same,Number of iPS cell colonies,"[4]; Condition A: DON5-am-OCT4-IR-SOX2, DON5-am-KLF4",52.0
same,Number of iPS cell colonies,"[4]; Condition B: DON5-am-OCT4-IR-SOX2, DON5-am-LIN28-IR-NANOG, DON5-am-KLF4",97.3
same,Number of iPS cell colonies,"human skin fibroblast [5]; gene transfer once, with protein starvation treatment",25.5
same,Number of iPS cell colonies,"human skin fibroblast [5]; gene transfer once, without protein starvation treatment",9.5
same,Number of iPS cell colonies,"human skin fibroblast [5]; gene transfer two times, with protein starvation treatment",30.0
same,Number of iPS cell colonies,"human skin fibroblast [5]; gene transfer two times, without protein starvation treatment",26.0

# — patent US9238797B2, “Method for production of pluripotent stem cell” (TAKARA BIO INC., priority 2008, dated 2016)
